Data as given in patent US9301954B2, “Pharmaceutical composition for the prevention or treatment of osteoarthritis containing rebamipide as an active ingredient” (HANLIM PHARMACEUTICAL CO., LTD, priority 2010, dated 2016).
Entries after “also recorded” stand apart in the source; their conditions may differ.

System: MIA-induced osteoarthritis rats
Experiment: Therapeutic efficacy of oral rebamipide in monosodium iodoacetate (MIA)-induced osteoarthritis in rats
Assay type: in vivo, Wistar rats
Description: About 5 week old male Wistar rats were used. Monosodium iodoacetate (MIA) was dissolved in a physiological saline; and then administered to the rats in the dose of 4 mg/50 μl via the right knee thereof, so as to induce osteoarthritis. The rats were divided into 3 groups, each having 5 rats. The first group (non-arthritis) was a non-treated group, i.e., a normal control group. The second group (MIA) was an osteoarthritis-induced group through the MIA administration. The rats of the third group (MIA+Rebamipide) were administered with the MIA to induce osteoarthritis; and then orally administered with rebamipide every day for 7 days. At the 7th day after the MIA induction, the femurs and the tibias were isolated from the rats of each group and then observed under a dissecting microscope. After H&E staining, the knee joint sites were observed through a low-magnification lens. In the results, the nucleus is shown in blue-violet color and the cytoplasm is shown in pink color. […] The knee joints were stained with Safranin O, which can show losses of the cartilage proteoglycans. The tartrate-resistant acid phosphatase (TRAP) staining for osteoclasts, was performed at 37° C. for 30 minutes, using a leukocyte acid phosphatase kit (Sigma 387-A, USA). The TRAP-positive cells were shown in red-violet color. The multinucleated cells (having above 3 nuclei) were considered as TRAP-positive cells (osteoclasts), which were counted under an optical microscope.

In the case of `O=C(NC(Cc1cc(=O)[nH]c2ccccc12)C(=O)O)c1ccc(Cl)cc1` (stereo not drawn) [rebamipide], the “Inflammation by H&E staining” value (MIA+Rebamipide group in comparison with the MIA group, oral, 7 days) is reported as “favorably changed”, the “Cartilage damage by histological analyses (TRAP, safranin O, H&E staining)” value (MIA+Rebamipide group vs MIA group, oral, 7 days) is reported as “remained intact without destruction” and the “Safranin O staining of femoral cartilage site (proteoglycan loss, surface)” value (MIA+Rebamipide group, oral, 7 days, similar to the non-arthritis group) is reported as “smooth and shown in strong orange-red color”. For the same compound, the “Cartilage damage of isolated femurs and tibias observed under a dissecting microscope” value (male Wistar rats, MIA 4 mg/50 μl via right knee, rebamipide orally every day for 7 days, 7th day after MIA induction) was “significantly inhibited; also recorded: little damages in the cartilage sites”, the “Number of osteoclasts in the tibial subchondral bone via TRAP staining” value (rebamipide group in comparison with the MIA group, oral, 7 days) was “significantly reduced” and the “Histology grade evaluation (standards of Table 1, FIG. 3): cartilage surface and safranin O loss” value (rebamipide-treated group, oral, 7 days) was “only a little loss of safranin O in the cartilage site”.
